Legend:
Assay type in all cases: cell-based
[1] = test system: wild type (AMPK+/+) mouse embryonic fibroblasts; test: Circadian reverbα and dbp expression by quantitative PCR in serum-stimulated wild type fibroblasts; details: 25 mM glucose supplemented with 1 mM AICAR, after 2 hour 50% horse serum, compared with 0.5 mM glucose
Procedure: (§1) (A) Unsynchronized paired wild type (AMPK^+/+) or ampkα1^−/−; ampkα2^−/− (AMPK−/−) mouse embryonic fibroblasts were stimulated by 2 hour exposure to 50% horse serum followed by transfer to media containing 25 mM glucose, 0.5 mM glucose or 25 mM glucose supplemented with 1 mM AICAR. Quantitative PCR analysis was performed using cDNA samples collected at the indicated times following stimulation. Data represent the mean of two independent experiments, each analyzed in triplicate. (B) Fibroblasts stably expressing Bmal1-luciferase were cultured in media containing the indicated amounts of glucose with or without 2 mM AICAR. Typical results of continuous monitoring of luciferase activity are shown. (C and D) Quantitation of the circadian period (C) and amplitude (D) of Bmal1-driven luciferase activity from experiments performed as described in (B). Data in (C) and (D) represent the mean±standard deviation for four samples per condition. […]
(§2) FIG. 4A-B show disruption of AMPK alters circadian rhythms in MEFs. […] Quantitative PCR analysis was performed using cDNA samples prepared from lysates collected at the indicated times following stimulation. Data represent the mean±standard deviation of two or three independent experiments each analyzed in triplicate. […]

[2] = test system: ampkα1−/−; ampkα2−/− (AMPK−/−) mouse embryonic fibroblasts; test: Circadian reverbα and dbp expression by quantitative PCR in serum-stimulated MEFs lacking AMPK; details: 25 mM glucose supplemented with 1 mM AICAR
Procedure: as §1, §2

[3] = test system: Fibroblasts stably expressing Bmal1-luciferase; test: Continuous monitoring of Bmal1-driven luciferase activity in fibroblasts; details: media with 2 mM AICAR vs 25 mM glucose
Procedure: (A) Unsynchronized paired wild type (AMPK^+/+) or ampkα1^−/−; ampkα2^−/− (AMPK−/−) mouse embryonic fibroblasts were stimulated by 2 hour exposure to 50% horse serum followed by transfer to media containing 25 mM glucose, 0.5 mM glucose or 25 mM glucose supplemented with 1 mM AICAR. Quantitative PCR analysis was performed using cDNA samples collected at the indicated times following stimulation. Data represent the mean of two independent experiments, each analyzed in triplicate. (B) Fibroblasts stably expressing Bmal1-luciferase were cultured in media containing the indicated amounts of glucose with or without 2 mM AICAR. Typical results of continuous monitoring of luciferase activity are shown. (C and D) Quantitation of the circadian period (C) and amplitude (D) of Bmal1-driven luciferase activity from experiments performed as described in (B). Data in (C) and (D) represent the mean±standard deviation for four samples per condition. ANOVA analysis indicated a significant difference between categories. ** P<0.01 vs. samples cultured in 25 mM glucose in Scheffe's post-hoc analysis.
The Bmal1 promoter is repressed by REVERBα. Therefore, the effects of reducing glucose availability on circadian rhythms was examined using fibroblasts stably expressing luciferase under the control of a Bmal1 promoter. […]

With `NC(=O)c1ncn([C@@H]2O[C@H](CO)[C@@H](O)[C@H]2O)c1N` [AICAR, 5-amino-4-imidazolecarboxamide riboside] the “amplitude of circadian reverbα and dbp expression” value [1] was “mimicked the effects of glucose deprivation”, the “expression of reverbα and dbp” value [2] was “neither glucose deprivation nor AICAR treatment affected the expression of reverbα and dbp” and the “amplitude of Bmal1-luciferase expression” value [3] was “decreased the amplitude of Bmal1-luciferase expression”.

— patent US20120264796A1, “METHODS FOR MODULATING CIRCADIAN RHYTHMS” (THE SALK INSTITUTE FOR BIOLOGICAL STUDIES, priority 2009, published 2012)
